{
  "source": "paper PMC3087488",
  "about": "(Journal of Oncology, 2011)",
  "key": {"[1]": {"experiment": "motesanib plasma pharmacokinetics in patients", "format": "in vivo, human", "protocol": "Plasma motesanib and gemcitabine concentrations were analyzed using a validated liquid chromatography/tandem mass spectrometry (LC-MS/MS) method, respectively. […] All pharmacokinetic parameter estimates were calculated using standard noncompartmental methods and WinNonlin Professional software on […] (Version 5.1.1, Pharsight Corporation, Mountain View, Calif, USA)."}, "VEGFR1": {"test_system": "VEGFR1", "set-up": "method as in PMID 16951187", "conditions": "cited from earlier work"}, "VEGFR3": {"test_system": "VEGFR3", "set-up": "method as in PMID 16951187", "conditions": "cited from earlier work"}, "PDGFR": {"test_system": "PDGFR", "set-up": "method as in PMID 16951187", "conditions": "cited from earlier work"}, "Kit": {"test_system": "Kit", "set-up": "method as in PMID 16951187", "conditions": "cited from earlier work"}, "[2]": {"test_system": "human umbilical vein endothelial cell (HUVEC) proliferation", "set-up": "method as in PMID 16951187", "conditions": "cited from earlier work"}, "cytochrome P 450 3A": {"test_system": "cytochrome P 450 3A", "conditions": "cited from earlier work"}, "advanced solid tumors": {"test_system": "advanced solid tumors", "experiment": "tumor response per modified RECIST", "conditions": "for Confirmed complete response / Confirmed objective response, % (95% CI) / Confirmed partial response / Durable stable disease (≥24 weeks) / Progressive disease / Stable disease / Unevaluable / Clinical benefit rate (CR + PR + durable SD): gemcitabine/cisplatin"}, "[3]": {"experiment": "phase 1b dose escalation: dose-limiting toxicities and MTD", "conditions": "in combination with panitumumab and gemcitabine/cisplatin; patients with advanced solid tumors"}, "[4]": {"conditions": "motesanib 50 mg QD (n = 8) + panitumumab"}, "[5]": {"conditions": "motesanib 75 mg BID (n = 2) + panitumumab"}, "[6]": {"conditions": "motesanib 75 mg QD (n = 6) + panitumumab"}, "[7]": {"conditions": "motesanib 100 mg QD (n = 6) + panitumumab"}, "[8]": {"conditions": "motesanib 125 mg QD (n = 11) + panitumumab"}},
  "data": [
    {"smiles": "CC1(C)CNc2cc(NC(=O)c3cccnc3NCc3ccncc3)ccc21", "note": "[motesanib]", "values": [
      {"measurement": "concentration at 24 h", "setting": "[1]; human, in vivo, mean daily motesanib C 24 (above IC50 for HUVEC proliferation)", "value": "> 4", "unit": "ng/mL"},
      {"measurement": "concentration at 24 h", "setting": "[1]; human, in vivo, mean daily motesanib C 24 (higher than IC90 for HUVEC proliferation)", "value": "> 28", "unit": "ng/mL"},
      {"measurement": "half-life", "setting": "[1]; human, in vivo, mean estimated terminal elimination half-life (t 1/2,z)", "value": "5.21 to 6.72", "unit": "h"},
      {"measurement": "Tmax", "setting": "[1]; human, in vivo, po", "value": "~1", "unit": "h"},
      {"measurement": "C max, mean (SD)", "setting": "[1]; motesanib 75 mg QD (n = 3 − 6), single dose, + panitumumab, gemcitabine/cisplatin", "value": "186 (92) ng/mL"},
      {"measurement": "IC50", "setting": "VEGFR1", "value": "[…]"},
      {"measurement": "IC50", "setting": "VEGFR3", "value": "[…]"},
      {"measurement": "IC50", "setting": "PDGFR", "value": 84, "unit": "nM"},
      {"measurement": "IC50", "setting": "Kit", "value": "[…]"},
      {"measurement": "90% inhibitory concentration (IC90) for HUVEC proliferation", "setting": "[2]", "value": 0.028, "unit": "µg/mL"},
      {"measurement": "IC50 for HUVEC proliferation", "setting": "[2]", "value": 0.004, "unit": "µg/mL"},
      {"measurement": "route of metabolism", "setting": "cytochrome P 450 3A", "value": "primarily metabolized by glucuronidation and cytochrome P 450 3A-mediated oxidation"},
      {"measurement": "patients with durable (≥24 weeks) stable disease", "setting": "advanced solid tumors; all 41 patients", "value": "six"},
      {"measurement": "patients with confirmed partial response", "setting": "advanced solid tumors; all 41 patients incl. 0-mg cohort", "value": 9, "unit": "patients"},
      {"measurement": "confirmed objective response", "setting": "advanced solid tumors; all 41 patients incl. 0-mg cohort, 10 patients, 95% CI, 12.4–40.3", "value": 24, "unit": "%"},
      {"measurement": "patients with best response of stable disease", "setting": "advanced solid tumors; all 41 patients, twenty patients", "value": 49, "unit": "%"},
      {"measurement": "median progression-free survival", "setting": "advanced solid tumors; all patients", "value": 197, "unit": "days"},
      {"measurement": "Kaplan-Meier estimate of median progression-free survival", "setting": "advanced solid tumors; all patients, 95% CI: 2.8—not estimable", "value": 28, "unit": "weeks"},
      {"measurement": "patients with complete response as best objective response", "setting": "advanced solid tumors; all patients, breast cancer", "value": "One"},
      {"measurement": "Confirmed complete response", "setting": "advanced solid tumors; [4]", "value": "0 (0) n (%)"},
      {"measurement": "Confirmed objective response, % (95% CI)", "setting": "advanced solid tumors; [4]", "value": "0 (0–36.9) %"},
      {"measurement": "Confirmed partial response", "setting": "advanced solid tumors; [4]", "value": "0 (0) n (%)"},
      {"measurement": "Durable stable disease (≥24 weeks)", "setting": "advanced solid tumors; [4]", "value": "0 (0) n (%)"},
      {"measurement": "Progressive disease", "setting": "advanced solid tumors; [4]", "value": "2 (25) n (%)"},
      {"measurement": "Stable disease", "setting": "advanced solid tumors; [4]", "value": "5 (63) n (%)"},
      {"measurement": "Unevaluable", "setting": "advanced solid tumors; [4]", "value": "0 (0) n (%)"},
      {"measurement": "Clinical benefit rate (CR + PR + durable SD)", "setting": "advanced solid tumors; [5]", "value": "2 (100) n (%)"},
      {"measurement": "Confirmed complete response", "setting": "advanced solid tumors; [5]", "value": "0 (0) n (%)"},
      {"measurement": "Confirmed objective response, % (95% CI)", "setting": "advanced solid tumors; [5]", "value": "50 (1.3–98.7) %"},
      {"measurement": "Confirmed partial response", "setting": "advanced solid tumors; [5]", "value": "1 (50) n (%)"},
      {"measurement": "Durable stable disease (≥24 weeks)", "setting": "advanced solid tumors; [5]", "value": "0 (0) n (%)"},
      {"measurement": "Progressive disease", "setting": "advanced solid tumors; [5]", "value": "0 (0) n (%)"},
      {"measurement": "Stable disease", "setting": "advanced solid tumors; [5]", "value": "1 (50) n (%)"},
      {"measurement": "Unevaluable", "setting": "advanced solid tumors; [5]", "value": "0 (0) n (%)"},
      {"measurement": "Confirmed complete response", "setting": "advanced solid tumors; [6]", "value": "0 (0) n (%)"},
      {"measurement": "Confirmed objective response, % (95% CI)", "setting": "advanced solid tumors; [6]", "value": "17 (0.4–64.1) %"},
      {"measurement": "Confirmed partial response", "setting": "advanced solid tumors; [6]", "value": "1 (17) n (%)"},
      {"measurement": "Durable stable disease (≥24 weeks)", "setting": "advanced solid tumors; [6]", "value": "3 (50) n (%)"},
      {"measurement": "Progressive disease", "setting": "advanced solid tumors; [6]", "value": "0 (0) n (%)"},
      {"measurement": "Stable disease", "setting": "advanced solid tumors; [6]", "value": "4 (67) n (%)"},
      {"measurement": "Unevaluable", "setting": "advanced solid tumors; [6]", "value": "1 (17) n (%)"},
      {"measurement": "Clinical benefit rate (CR + PR + durable SD)", "setting": "advanced solid tumors; [7]", "value": "6 (100) n (%)"},
      {"measurement": "Confirmed partial response", "setting": "advanced solid tumors; [7]", "value": "3 (50) n (%)"},
      {"measurement": "Durable stable disease (≥24 weeks)", "setting": "advanced solid tumors; [7]", "value": "1 (17) n (%)"},
      {"measurement": "Progressive disease", "setting": "advanced solid tumors; [7]", "value": "0 (0) n (%)"},
      {"measurement": "Stable disease", "setting": "advanced solid tumors; [7]", "value": "2 (33) n (%)"},
      {"measurement": "Unevaluable", "setting": "advanced solid tumors; [7]", "value": "0 (0) n (%)"},
      {"measurement": "Clinical benefit rate (CR + PR + durable SD)", "setting": "advanced solid tumors; [8]", "value": "6 (55) n (%)"},
      {"measurement": "Confirmed complete response", "setting": "advanced solid tumors; [8]", "value": "0 (0) n (%)"},
      {"measurement": "Confirmed objective response, % (95% CI)", "setting": "advanced solid tumors; [8]", "value": "18 (2.3–51.8) %"},
      {"measurement": "Confirmed partial response", "setting": "advanced solid tumors; [8]", "value": "2 (18) n (%)"},
      {"measurement": "Durable stable disease (≥24 weeks)", "setting": "advanced solid tumors; [8]", "value": "1 (9) n (%)"},
      {"measurement": "Progressive disease", "setting": "advanced solid tumors; [8]", "value": "1 (9) n (%)"},
      {"measurement": "Stable disease", "setting": "advanced solid tumors; [8]", "value": "4 (36) n (%)"},
      {"measurement": "Unevaluable", "setting": "advanced solid tumors; [8]", "value": "1 (9) n (%)"},
      {"measurement": "patients with complete response, partial response, or stable disease as best response", "setting": "advanced solid tumors; of the 41 patients enrolled", "value": 30, "unit": "patients"},
      {"measurement": "maximum tolerated dose (MTD) of motesanib", "setting": "[3]", "value": 100, "unit": "mg QD"}
    ]}
  ]
}
